Test results: ChEMBL document CHEMBL1156236, “Trypanoside, anti-tuberculosis, leishmanicidal, and cytotoxic activities of tetrahydrobenzothienopyrimidines” (Bioorg Med Chem, 2010)
Converted amounts (≈) assume the structure as drawn.

Assays:
Vero = assay: Cytotoxicity against african green monkey Vero cells after 72 hrs by MTS assay; details: Chlorocebus sabaeus, Vero, 72 h
Trypanosoma cruzi = assay: Antitrypanosomal activity against Trypanosoma cruzi tulahuen C4 trypomastigotes infected in african green monkey Vero cells assessed as CPRG cleavage after 120 hrs by microplate reader; assay type: functional, organism-based
[1] = Selectivity index, ratio of IC50 for african green monkey Vero cells to IC50 for Trypanosoma cruzi tulahuen C4; details: Vero cells
[2] = test system: Mycobacterium tuberculosis; assay: Antitubercular activity against Mycobacterium tuberculosis H37Rv ATCC 27294 after 7 days by microplate alamar blue assay; assay type: functional; details: H37Rv ATCC 27294, 168 h
[3] = Cytotoxicity against BALB/c mouse macrophages after 48 hrs by trypan blue dye exclusion method; assay type: cell-based; details: Macrophage
Leishmania amazonensis [4] = assay: Antileishmanial activity against Leishmania amazonensis MHOM/BR/76/LTB-012 amastigotes infected BALB/c mouse macrophages after 48 hrs by MTT assay; assay type: functional, organism-based; details: MHOM/BR/76/LTB-012, 48 h
[5] = Selectivity index, ratio of IC50 for BALB/c mouse macrophages to IC50 for Leishmania amazonensis MHOM/BR/76/LTB-012
Leishmania amazonensis [6] = assay: Antileishmanial activity against Leishmania amazonensis Lma CL1 amastigotes infected BALB/c mouse macrophages after 48 hrs by Giemsa staining method; assay type: functional, organism-based; details: Lma CL1, 48 h
Leishmania braziliensis = assay: Antileishmanial activity against Leishmania braziliensis MHOM/PE/PER006 promastigote infected BALB/c mouse macrophages after 48 hrs by Giemsa staining method; assay type: functional, organism-based; details: MHOM/PE/PER006, 48 h
Leishmania peruviana = assay: Antileishmanial activity against Leishmania peruviana MHOM/PE/LCA08 promastigote infected BALB/c mouse macrophages after 48 hrs by Giemsa staining method; assay type: functional, organism-based; details: MHOM/PE/LCA08, 48 h
[7] = Cytotoxicity against BALB mouse 3T3 cells; assay type: cell-based; details: BALB 3T3 cells
NCI-H460 = assay: Cytotoxicity against human NCI-H460 cells; assay type: functional
DU-145 = assay: Cytotoxicity against human DU145 cells; assay type: functional
MCF7 = assay: Cytotoxicity against human MCF7 cells; assay type: functional
M14 = assay: Cytotoxicity against human M14 cells; assay type: functional
HT-29 = assay: Cytotoxicity against human HT-29 cells; assay type: functional
K562 = assay: Cytotoxicity against human K562 cells; assay type: functional
[8] = Selectivity index, ratio of IC50 for african green monkey Vero cells to MIC for Mycobacterium tuberculosis H37Rv ATCC 27294 by microplate alamar blue assay; assay type: functional
[9] = test system: Mycobacterium tuberculosis; assay: Antitubercular activity against Mycobacterium tuberculosis H37Rv ATCC 27294 after 7 days by low oxygen recovery assay; assay type: functional; details: H37Rv ATCC 27294, 168 h

Structure (SMILES)	IC50 (Vero)	IC50 (Trypanosoma cruzi)	selectivity ratio [1]	MIC [2]	IC50 [3]	IC50 (Leishmania amazonensis [4])	Ratio IC50 [5]	IC50 (Leishmania amazonensis [6])	IC50 (Leishmania braziliensis)	IC50 (Leishmania peruviana)	GI50 [7]	GI50 (NCI-H460)	GI50 (DU-145)	GI50 (MCF7)	GI50 (M14)	GI50 (HT-29)	GI50 (K562)	Ratio IC50 [8]	MIC [9]
Brc1ccc(/C=N/Nc2ncnc3sc4c(c23)CCCC4)cc1	15.5 µM	20.3 µM	0.8	> 250 µM	7.8 µM	0.9 µM	8.8	> 2 µM	> 2 µM	> 2 µM	17.4 µM	10.5 µM	14.6 µM	5.9 µM	33.6 µM	12.4 µM	5.7 µM	–	–
Brc1ccccc1/C=N/Nc1ncnc2sc3c(c12)CCCC3	7.7 µM	9.3 µM	0.8	24.3 µM (≈ 9.41 µg/mL)	7.4 µM	1.3 µM	5.8	–	–	–	11.2 µM	7.7 µM	7.1 µM	4.5 µM	15.4 µM	8 µM	3 µM	0.8	–
Clc1ccccc1/C=N/Nc1ncnc2sc3c(c12)CCCC3	14.6 µM	21.3 µM	0.7	124 µM (≈ 42.6 µg/mL)	11.2 µM	2.2 µM	5	–	–	–	88.1 µM	62.9 µM	77.8 µM	22 µM	> 170 µM	56.5 µM	19.8 µM	0.7	–
Fc1ccc(/C=N/Nc2ncnc3sc4c(c23)CCCC4)cc1	18.4 µM	18.4 µM	1	71.1 µM (≈ 23.2 µg/mL)	9.4 µM	9.7 µM	1	–	–	–	20.5 µM	9.4 µM	13.9 µM	7.4 µM	17.6 µM	10.4 µM	8.9 µM	0.6	–
CC(C)=NNc1ncnc2sc3c(c12)CCCC3	38.4 µM	14.1 µM	2.7	240 µM (≈ 62.4 µg/mL)	238 µM	40.6 µM	5.9	–	–	–	> 3.5 µM	9.3 µM	11.6 µM	12.2 µM	23.3 µM	33 µM	13.6 µM	0.5	–
Oc1ccc(/C=N/Nc2ncnc3sc4c(c23)CCCC4)cc1	12.3 µM	11.3 µM	1.1	72.1 µM (≈ 23.4 µg/mL)	178 µM	41.6 µM	4.3	–	–	–	6.6 µM	14.9 µM	20.8 µM	17 µM	17.2 µM	19.5 µM	15.8 µM	0.6	–
COc1cccc(/C=N/Nc2ncnc3sc4c(c23)CCCC4)c1	14.8 µM	16.9 µM	0.9	119 µM (≈ 40.4 µg/mL)	16.3 µM	36.1 µM	0.5	–	–	–	17.6 µM	16.2 µM	17.7 µM	14.9 µM	143 µM	7.4 µM	15.5 µM	0.6	–
FC(F)(F)c1ccccc1/C=N/Nc1ncnc2sc3c(c12)CCCC3	8 µM	13.8 µM	0.6	15.7 µM (≈ 5.91 µg/mL)	3.1 µM	1.2 µM	2.6	–	–	–	15.8 µM	5.4 µM	3.5 µM	4.8 µM	6.5 µM	4.5 µM	1.7 µM	1.3	15.4 µM (≈ 5.8 µg/mL)
NNc1ncnc2sc3c(c12)CCCC3	40.9 µM	21.3 µM	1.9	374 µM (≈ 82.5 µg/mL)	33.8 µM	54.4 µM	0.6	–	–	–	< 4.5 µM	9.6 µM	13.9 µM	9 µM	24.6 µM	20.7 µM	11.1 µM	0.3	–
CC(C)(C)/C=N/Nc1ncnc2sc3c(c12)CCCC3	–	> 25 µM	–	299 µM (≈ 86.3 µg/mL)	176 µM	113 µM	1.6	–	–	–	7.3 µM	24.5 µM	25.1 µM	26 µM	32.7 µM	33 µM	27.5 µM	0.3	–
C(=N\Nc1ncnc2sc3c(c12)CCCC3)/c1ccc[nH]1	3.4 µM	22.9 µM	0.1	20.8 µM (≈ 6.19 µg/mL)	9.7 µM	10.1 µM	1	–	–	–	2.2 µM	1.7 µM	4.6 µM	0.4 µM	2.5 µM	3.8 µM	1.9 µM	0.6	–
C(=N\Nc1ncnc2sc3c(c12)CCCC3)/c1ccc2c(c1)OCO2	17 µM	22.8 µM	0.7	> 250 µM	16.3 µM	29.4 µM	0.6	–	–	–	> 250 µM	> 250 µM	> 250 µM	117 µM	> 250 µM	> 250 µM	> 250 µM	–	–
C(=N\Nc1ncnc2sc3c(c12)CCCC3)/c1ccccc1	25.9 µM	14.4 µM	1.8	75.9 µM (≈ 23.4 µg/mL)	28.3 µM	43.7 µM	0.6	–	–	–	21.7 µM	18.2 µM	20 µM	11.2 µM	18 µM	12.5 µM	13.2 µM	0.5	–
